Data reported in patent US6291694A, “Process and intermediates useful to produce vitamin D analogs” (Hoffman-La Roche Inc., priority 2000, dated 2001).

Assay: pKa of alcohol additive in water
Assay type: physicochemical

Row | SMILES | pKa in water
1 | OC(c1ccccc1)(C(F)(F)F)C(F)(F)F [formula 15c, 1,1,1,3,3,3-hexafluoro-2-phenyl-2-propanol] | 8.52
2 | OC(C(F)(F)F)C(F)(F)F [formula 15b] | 9.13
3 | CC(O)(C(F)(F)F)C(F)(F)F [formula 15a] | 9.51
4 | OC(C(F)(F)F)(C(F)(F)F)C(F)(F)F [formula 15d, perfluoro-t-butanol] | 5.18
5 | OC(c1cccc(C(O)(C(F)(F)F)C(F)(F)F)c1)(C(F)(F)F)C(F)(F)F [Formula 16, 1,3-bis(1,1,1,3,3,3, -hexafluoro-2-hydroxypropyl)benzene] | 8.48
